In article PMC6443933, “Antagonizing Retinoic Acid-Related-Orphan Receptor Gamma Activity Blocks the T Helper 17/Interleukin-17 Pathway Leading to Attenuated Pro-inflammatory Human Keratinocyte and Skin Responses” (Frontiers in Immunology, 2019):

Columns and labels:
human RORγt-LBD = target: T1, human RORγt-LBD (Homo sapiens, UniProt P51449); assay: TR-FRET RIP140 co-activator peptide displacement from RORγt-LBD; assay type: biochemical; settings: 1 h incubation, read-out: IC50, disruption of RIP140 peptide interaction with RORγt-LBD
T1 construct: human RORγt-LBD (264-518, produced at Novartis); made in house
T1 sequence (P51449 264-518): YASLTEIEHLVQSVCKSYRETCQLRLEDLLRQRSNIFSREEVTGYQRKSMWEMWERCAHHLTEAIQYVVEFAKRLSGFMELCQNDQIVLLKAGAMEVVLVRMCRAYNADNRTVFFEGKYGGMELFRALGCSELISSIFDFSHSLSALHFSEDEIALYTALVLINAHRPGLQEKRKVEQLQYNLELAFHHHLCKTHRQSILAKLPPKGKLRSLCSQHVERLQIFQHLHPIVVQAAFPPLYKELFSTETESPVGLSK
Procedure: Compound-mediated disruption of the interaction between the human RORγt-LBD (264-518, produced at Novartis) with a biotinylated RIP140 derived co-activator peptide (biotinyl-NH-Ahx-[…]-CONH2, Thermo Scientific) was quantified by TR-FRET as previously described ([34], [44]). Briefly, Cpd A was incubated with a mixture consisting of 6 nM His6-tagged RORγt-LBD, 90 nM biotinylated RIP140 co-activator peptide, 0.45 nM Cy5-labeled streptavidin (GE Healthcare), 1.5 nM Europium-labeled anti-His6 antibody (Perkin Elmer). After 1 h of incubation, the emissions were measured at 615 and 665 nm. Concentration-response curves were generated and IC50 values were calculated using the GraphPad Prism software package.

[1] = system: HUT78 T-cells stably expressing full-length eGFP-RORγt; assay: IL-17A / IL-2 production by RORγt transduced HUT78 T-cell line; assay type: cell-based, human
[2] = system: STAT3 phosphorylation in Ba/F3 cells stably expressing the human IL-21 receptor; assay: IL-21-induced phospho-STAT3 by flow cytometry; assay type: cell-based; settings: 10 μM, 1 h pre-incubation, vs DMSO
Procedure: To assess whether Cpd A affected STAT3 activity we induced STAT3 phosphorylation in Ba/F3 cells stably expressing the human IL-21 receptor (kindly provided by Dr. Max Warncke, Novartis). Cells were pre-incubated for 1 h with 10 μM of Cpd A or with 1 μM of the pan-JAK inhibitor CP690550. To induce STAT3 activity, the cells were stimulated for 1.5 h with recombinant human IL-21 (3 nM), followed by two washing steps using buffer containing PBS/0.5% BSA. The cells were fixed with 2% paraformaldehyde for 15 min at room temperature, washed and resuspended in ice-cold 90% methanol solution and stored overnight at −20°C. The samples were washed and stained for 1 h with an Alexa 647-labeled anti-phospho (pY705)-STAT3 antibody (BD biosciences). After two washes the cells were analyzed using a LSR Fortessa (BD Bioscience) and analyzed using FlowJo software (Tree Star).

HaCaT keratinocytes = assay: IL-17-driven HaCaT keratinocyte responses (Th17 supernatants or spiked cytokines), qRT-PCR; assay type: cell-based, human; settings: supernatants of Th17 cells treated with 10 μM vs 0.13 nM, 24 h
Procedure: The HaCaT keratinocyte cell line was purchased from AddexBio and was maintained in RPMI 1640 medium supplemented with Glutamax, Penicillin/Streptomycin (all from Gibco) and 10% FCS (PAA). Normal primary human epidermal keratinocytes (NHEKs) were purchased from Lonza and PromoCell, respectively. Cells were cultured in Keratinocyte basal growth medium (KBM; Lonza) containing KGM2 growth supplements including insulin, human epidermal growth factor, bovine pituitary extract, hydrocortisone, epinephrine, transferrin, and gentamicin/amphotericin B (Lonza). HaCaT cells were incubated in a 96-well-microtiter plate (2 × 10^4 cells/well) with Th17 cytokine-containing supernatants obtained from total CD4^+ T-cells that were polarized for 72 h in the presence of anti-CD3/CD28 antibodies and a Th17 polarization cocktail as described above. […] Cytokine concentrations in supernatants were determined from representative experiments and they contained approximately 150 pg/ml or 600 pg/ml of IL-17 in 10 μM or in 0.13 nM treated samples, respectively. The TNF-α concentration was similar in supernatants exposed to low or high Cpd A concentrations and was 4 ng/ml. To study the impact of the IL-17 cytokine, IL-17 in the supernatants and in the spike-in cocktails was neutralized by a 0.5 h pre-incubation with an IL-17-specific antibody [0.75 μg/ml; Secukinumab (Cosentyx®, Novartis)]. All cultures were incubated in triplicates and after a 24 h incubation period, HaCaT cells (6 × 10^4 cells/sample) and NHEKs (1 × 10^5 cells/sample) were harvested and further processed for qRT-PCR analysis.
Total RNA from human Th17 cells (6 × 10^5 cells), RORγt-RORE HUT78 cells (4 × 10^5 cells) and HaCaT cells (6 × 10^4 cells) was extracted using RNeasy kit including a DNAse I digestion step according to the manufacturer‘s protocol (Qiagen). Frozen skin biopsies (8 mm punches) were resuspended in RLT buffer (Qiagen) containing 1% β-mercaptoethanol and homogenized using a Precellys-Cryolys device (Bertin Instruments) according to the manufacturer's instructions. cDNAs were prepared with the High Capacity cDNA Reverse Transcription Kit (Applied Biosystems). Quantitative RT-PCR analysis was performed using a TaqManViiA7 (Applied Biosystems). All runs were accompanied by the internal control gene human β-glucoronidase (Gus) (431088E). The samples were run in triplicate or in hexaplicate and normalized to Gus using the ΔΔCt method to provide arbitrary units representing relative expression levels. The following Taqman probes were used for RT-PCR (Thermo Scientific): RORC (Hs01076112_m1), IL17A (Hs00936345_m1), IL22 (Hs01574154_m1), IL26 (Hs00218189_m1), IL23R (Hs00332759_m1), CCR6 (Hs00218189_m1), NFKBIZ (Hs00355476_m), DEFB4A (Hs00823638_m1), IL36G (Hs00219742_m1), and CCL20 (Hs00355476_m1).

IC50 (human RORγt-LBD): 5.7 nM | IC50 ([1]; Homo sapiens, PMA plus anti-CD3, 48 h, ELISA): 27 nM
SMILES: Cc1ccc(C(=O)Nc2cn3ccnc3c(CN3CCN(c4noc(C(C)(C)C)n4)[C@@H](C)C3)c2C)cn1 [Cpd A, (S)-N-(8-((4-(5-(tert-butyl)-1,2,4-oxadiazol-3-yl)-3-methylpiperazin-1-yl)methyl)-7-methylimidazo[1,2-a]pyridin-6-yl)-6-methylnicotinamide]
IL-2 cytokine production ([1]; PMA plus anti-CD3, 48 h, ELISA): not affected | attenuation of IL-17A production ([1]; concentration-dependent): complete attenuation | IL-21-induced STAT3 phosphorylation (pY705) [2]: did not affect | IL-17 signature genes (NFKBIZ, DEFB4A, CCL20, IL36G) in HaCaT (HaCaT keratinocytes): marked reduction
